Measurements published in paper PMC6269910 (Molecules, 2013).
Like-named read-outs stand apart in the source and are kept apart here.

Experiments:
stomach = experiment: Gastric-ulcerogenic effect (ulcer score); assay type: in vivo, mice
[1] = system: acetic acid-induced abdominal constriction; experiment: Acetic acid-induced writhing (Koster) test; assay type: in vivo, mice
Protocol: Test samples, suspended in a mixture of distilled water and 0.5% sodium carboxymethyl cellulose (CMC), were given orally to the animals. The control group animals received the same experimental handling as those of the test groups, except that the drug treatment was replaced with appropriate volumes of the dosing vehicle. […] One hour after oral administration of test sample, each mouse was injected intraperitoneally with 3% (w/v) acetic acid solution (0.1 mL/10 g, bw). Starting 5 min after the acetic acid injection, the number of muscular contractions on mice were counted for a period of 10 min. A significant reduction in the number of writhings by any treatment as compared to the number of writhings in control animals was considered a positive analgesic response. The analgesic activity was expressed as a percentage change from writhing controls. ASA was used as a reference compound and administered at 200 mg/kg.

[2] = system: lipid peroxidation in stomach; experiment: Lipid peroxidation in stomach (TBARS); assay type: in vivo, mice
[3] = target: T1, HCV NS5B RNA dependent RNA polymerase (Hepatitis C virus genotype 1b, UniProt P26663); experiment: NS5B inhibition assay (primer dependent elongation, poly rA-U12); assay type: biochemical
T1 construct: HCV NS5B RNA dependent RNA polymerase activity
Protocol: The compounds 1a–e and 2a–e were reconstituted in DMSO as 50 mM stocks, and serially diluted in DMSO to obtain working stocks. Wedelolactone, a known inhibitor of HCV NS5B activity, was employed as a reference compound. Preliminary screening was carried out at 100 μM to identify a wider range of compounds.
All synthesized compounds were evaluated for their effect on HCV NS5B RNA dependent RNA polymerase activity in primer dependent elongation assays as previously described. Activity of NS5B in the absence of the inhibitor but containing an equivalent amount of DMSO (control reaction) was set at 100% and that in the presence of the inhibitor was quantified relative to this control.

[4] = system: carrageenan-induced hind paw edema; experiment: Carrageenan-induced hind paw edema model; assay type: in vivo, mice
Protocol: Locally bred balb/c mice of both sexes (30-35 g) were purchased from the animal breeding laboratories of Inonu University ([…], Turkey). The animals were fed a standard pellet diet and water ad libitum in a temperature-controlled room. On the day before the treatments, food was withdrawn, but the animals were allowed free access of water. The allocation of animals to different groups was randomized, and the experiments were carried out under blind conditions. Mice used in the present study were cared for in accordance with the directory of the Inonu University Animal Care Unit, which applies the guidelines of the National Institutes of Health on laboratory animal welfare. Procedures involving animals and their care were conducted in conformity with international laws and policies and animal studies accepted by Inonu University Ethical Council (2011/A17). Test samples, suspended in a mixture of distilled water and 0.5% sodium carboxymethyl cellulose (CMC), were given orally to the animals. The control group animals received the same experimental handling as those of the test groups, except that the drug treatment was replaced with appropriate volumes of the dosing vehicle. […] For the preliminary activity screening, each test group was composed of four mice. […] Because of the daily changing circumstance, we used another control group for each experiment. For the determination of the effects on carrageenan-induced paw oedema, the modified method of Kasahara et al. was employed. One hour after the oral administration of either test sample or dosing vehicle, each mouse was injected with a freshly prepared (0.5 mg/25 μL) suspension of carrageenan (Sigma, St. Louis, MO, USA) in physiological saline (154 mM NaCl). The subplantar tissue of the right hind paw was the injection site for all mice. The contralateral paw (left hind paw) was injected with 25 μL saline solution as the internal control. […] The difference in footpad thickness between the right and left foot indicated the degree of inflammation for each mouse. The change in paw volume, either increase or decrease, was calculated and compared with the control group (dosing vehicle) and analyzed using statistical methods.

[5] = system: superoxide dismutase (SOD); experiment: SOD activity in liver, kidney, colon, brain; assay type: in vivo, mice; conditions: celecoxib 25 mg/kg oral, 72 h
Protocol: SOD is a major antioxidant enzyme found in cells, which protect cells from oxidative stress. SOD activity in the tissue samples was measured according to the previously described method.

LPO = LPO (TBARS) level in liver, kidney, colon, brain; assay type: in vivo, mice; conditions: celecoxib 25 mg/kg oral, 72 h
Protocol: (§1) Tissue samples were homogenized with ice-cold 150 mM KCl for the determination of LPO and glutathione (GSH) levels. The LPO levels were assayed by monitoring TBARS formation as described above.

glutathione (GSH) = experiment: GSH level in liver, kidney, colon, brain; assay type: in vivo, mice; conditions: celecoxib 25 mg/kg oral, 72 h
Protocol: as §1

myeloperoxidase (MPO) = experiment: MPO activity in liver, kidney, colon, brain; assay type: in vivo, mice; conditions: celecoxib 25 mg/kg oral, 72 h
Protocol: MPO is an enzyme that is found predominantly in the azurophilic granules of polymorphonuclear leukocytes (PMN). […] MPO activity was measured in tissues in a procedure similar to that documented by […] et al.

[6] = read-out: Anti-NS5B Activity (% Inh., 100 µM)
[7] = brain, series with 1a 100 mg/kg
[8] = brain, series with 1a 200 mg/kg
[9] = colon, series with 1a 100 mg/kg
[10] = colon, series with 1a 200 mg/kg
[11] = kidney, series with 1a 100 mg/kg
[12] = kidney, series with 1a 200 mg/kg
[13] = liver, series with 1a 100 mg/kg
[14] = liver, series with 1a 200 mg/kg

T1 sequence (P26663 2420-3010): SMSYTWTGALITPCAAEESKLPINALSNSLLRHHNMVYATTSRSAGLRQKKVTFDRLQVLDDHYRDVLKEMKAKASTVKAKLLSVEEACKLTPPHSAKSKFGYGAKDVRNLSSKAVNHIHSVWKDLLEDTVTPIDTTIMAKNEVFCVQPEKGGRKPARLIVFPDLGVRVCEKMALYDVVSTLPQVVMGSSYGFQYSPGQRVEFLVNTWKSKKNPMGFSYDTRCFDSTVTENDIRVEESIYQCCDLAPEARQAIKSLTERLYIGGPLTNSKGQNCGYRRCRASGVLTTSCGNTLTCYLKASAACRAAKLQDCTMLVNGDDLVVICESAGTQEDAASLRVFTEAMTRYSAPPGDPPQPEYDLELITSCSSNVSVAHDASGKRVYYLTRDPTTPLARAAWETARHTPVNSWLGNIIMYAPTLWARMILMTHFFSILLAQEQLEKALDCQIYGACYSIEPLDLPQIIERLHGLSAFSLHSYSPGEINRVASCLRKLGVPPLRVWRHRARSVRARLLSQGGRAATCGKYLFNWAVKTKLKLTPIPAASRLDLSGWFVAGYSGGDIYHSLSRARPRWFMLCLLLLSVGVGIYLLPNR

With `Cc1ccc(-c2cc(C(F)(F)F)nn2-c2ccc(S(=O)(=O)NC(=S)Nc3ccc(C(F)(F)F)cc3)cc2)cc1` [Compound 1e] the melting point was 228 to 231 °C, the Ulcer score (stomach; 200 mg/kg p.o., animals with lesions/animals) was 0/5 and the “Writhing test (% inh.)” value ([1]; 100 mg/kg oral) was −37.9%. The “Writhing test (Mean ± SEM)” value ([1]; 100 mg/kg oral, writhings counted 10 min from 5 min after acetic acid) was 24.0 ± 3.0, the Lipid peroxidation ([2]; 100 mg/kg, 8 h after analgesic test) was 406.9 ± 27.0 nmol TBARS/g wet weight and the inhibition at 100 µM [3, 6] was 14.6%. For the same compound, the “Swelling in thickness ± SEM” value ([4]; 50 mg/kg per os, 90 min) was 47.0 ± 3.3 × 10^−2 mm, the percent inhibitory activity ([4]; 50 mg/kg per os, 90 min) was 34.7% and the “Swelling in thickness ± SEM” value ([4]; 50 mg/kg per os, 180 min) was 57.0 ± 6.2 × 10^−2 mm. For the same compound, the percent inhibitory activity ([4]; 50 mg/kg per os, 180 min) was 38.0%, the “Swelling in thickness ± SEM” value ([4]; 50 mg/kg per os, 270 min) was 92.0 ± 1.2 × 10^−2 mm and the percent inhibitory activity ([4]; 50 mg/kg per os, 270 min) was 23.9%. For the same compound, the “Swelling in thickness ± SEM” value ([4]; 50 mg/kg per os, 360 min) was 106.0 ± 6.7 × 10^−2 mm, the percent inhibitory activity ([4]; 50 mg/kg per os, 360 min) was 17.8% and the “Swelling in thickness ± SEM” value ([4]; 100 mg/kg per os, 90 min) was 88.4 ± 2.6 × 10^−2 mm. The “Swelling in thickness ± SEM” value ([4]; 100 mg/kg per os, 180 min) was 83.9 ± 3.4 × 10^−2 mm, the percent inhibitory activity ([4]; 100 mg/kg per os, 180 min) was 8.8% and the “Swelling in thickness ± SEM” value ([4]; 100 mg/kg per os, 270 min) was 88.7 ± 11.4 × 10^−2 mm. For the same compound, the percent inhibitory activity ([4]; 100 mg/kg per os, 270 min) was 26.7%, the “Swelling in thickness ± SEM” value ([4]; 100 mg/kg per os, 360 min) was 83.4 ± 9.6 × 10^−2 mm and the percent inhibitory activity ([4]; 100 mg/kg per os, 360 min) was 35.4%. The “Swelling in thickness ± SEM” value ([4]; 200 mg/kg per os, 90 min) was 76.9 ± 5.7 × 10^−2 mm, the “Swelling in thickness ± SEM” value ([4]; 200 mg/kg per os, 180 min) was 83.0 ± 6.8 × 10^−2 mm and the “Swelling in thickness ± SEM” value ([4]; 200 mg/kg per os, 270 min) was 110.5 ± 7.5 × 10^−2 mm. The “Swelling in thickness ± SEM” value ([4]; 200 mg/kg per os, 360 min) was 103.7 ± 5.2 × 10^−2 mm, the percent inhibitory activity ([4]; 200 mg/kg per os, 360 min) was 19.6% and the “anti-inflammatory activity (in words)” value ([4]; all doses, all measurement intervals) was “moderate-to-good”.
For `CC(=O)Oc1ccccc1C(=O)O` [ASA, acetylsalicylic acid, reference compound], the Ulcer score (stomach; ASA 200 mg/kg) was 3/5, the “Writhing test (% inh.)” value ([1]; 200 mg/kg oral) was 74.7% and the “Writhing test (Mean ± SEM)” value ([1]; 200 mg/kg oral) was 4.4 ± 0.9. The Lipid peroxidation ([2]; ASA 200 mg/kg) was 436.1 ± 17.1 nmol TBARS/g wet weight.
Compound `Cc1ccc(-c2cc(C(F)(F)F)nn2-c2ccc(S(N)(=O)=O)cc2)cc1` [Celecoxib, 4-[5-(4-methylphenyl)-3-(trifluoromethyl)-1H-pyrazole-1-yl]benzene-sulfonamide, reference compound] has an SOD [5, 7] of 24.84 ± 10.65 U/g tissue, an SOD [5, 8] of 20.41 ± 13.73 U/g tissue and an SOD [5, 9] of 16.85 ± 5.24 U/g tissue. For the same compound, the SOD [5, 10] was 19.04 ± 5.60 U/g tissue, the SOD [5, 11] was 17.79 ± 7.47 U/g tissue and the SOD [5, 12] was 16.83 ± 9.71 U/g tissue. For the same compound, the SOD [5, 13] was 22.78 ± 14.45 U/g tissue, the SOD [5, 14] was 13.60 ± 11.98 U/g tissue and the LPO (LPO; [7]) was 8.18 ± 2.16 nmol/g tissue. It also gave an LPO (LPO; [8]) of 8.26 ± 1.01 nmol/g tissue, an LPO (LPO; [9]) of 7.12 ± 0.26 nmol/g tissue and an LPO (LPO; [10]) of 10.48 ± 2.69 nmol/g tissue. The LPO (LPO; [11]) was 11.12 ± 2.41 nmol/g tissue, the LPO (LPO; [12]) was 11.30 ± 2.52 nmol/g tissue and the LPO (LPO; [13]) was 9.56 ± 1.80 nmol/gtissue. For the same compound, the LPO (LPO; [14]) was 11.74 ± 2.25 nmol/gtissue, the Ulcer score (stomach; celecoxib 25 mg/kg) was 0/5 and the “Writhing test (% inh.)” value ([1]; 25 mg/kg oral) was 54%. For the same compound, the “Writhing test (Mean ± SEM)” value ([1]; 25 mg/kg oral) was 8.0 ± 1.3, the GSH (glutathione (GSH); [7]) was 22.36 ± 2.45 µmol/g tissue and the GSH (glutathione (GSH); [8]) was 20.2 ± 3.26 µmol/g tissue. It also gave a GSH (glutathione (GSH); [9]) of 28.06 ± 1.45 µmol/g tissue, a GSH (glutathione (GSH); [10]) of 26.42 ± 3.46 µmol/g tissue and a GSH (glutathione (GSH); [11]) of 22.24 ± 4.17 µmol/g tissue. For the same compound, the GSH (glutathione (GSH); [12]) was 21.68 ± 5.56 µmol/g tissue, the GSH (glutathione (GSH); [13]) was 20.58 ± 4.25 µmol/g tissue and the GSH (glutathione (GSH); [14]) was 22.14 ± 1.04 µmol/g tissue. It also gave a Lipid peroxidation ([2]; celecoxib 25 mg/kg) of 417.8 ± 23.3 nmol TBARS/g wet weight, an MPO (myeloperoxidase (MPO); [7]) of 0.60 ± 0.23 U/gtissue and an MPO (myeloperoxidase (MPO); [8]) of 1.48 ± 0.46 U/gtissue. It also gave an MPO (myeloperoxidase (MPO); [9]) of 0.52 ± 0.26 U/gtissue, an MPO (myeloperoxidase (MPO); [10]) of 0.46 ± 0.26 U/gtissue and an MPO (myeloperoxidase (MPO); [11]) of 3.36 ± 1.57 U/g tissue. It also gave an MPO (myeloperoxidase (MPO); [12]) of 4.75 ± 1.59 U/g tissue, an MPO (myeloperoxidase (MPO); [13]) of 0.63 ± 0.30 U/gtissue and an MPO (myeloperoxidase (MPO); [14]) of 0.19 ± 0.06 U/gtissue. The “Anti-NS5B Activity (% Inh., 100 µM)” value ([3]; 100 µM) was 9.5%, the inhibition at 100 µM ([3]; read-out: Anti-NS5B Activity (% Inh., 100 µM), 100 µM) was about 10% and the “Swelling in thickness ± SEM” value ([4]; 25 mg/kg per os, 90 min) was 57.0 ± 6.9 × 10^−2 mm. For the same compound, the “Swelling in thickness ± SEM” value ([4]; 25 mg/kg per os, 180 min) was 42.0 ± 3.3 × 10^−2 mm, the percent inhibitory activity ([4]; 25 mg/kg per os, 180 min) was 54.3% and the “Swelling in thickness ± SEM” value ([4]; 25 mg/kg per os, 270 min) was 94.0 ± 10.4 × 10^−2 mm. The “Swelling in thickness ± SEM” value ([4]; 25 mg/kg per os, 360 min) was 103.0 ± 7.5 × 10^−2 mm.
Compound `Cc1ccc(-c2cc(C(F)(F)F)nn2-c2ccc(S(=O)(=O)NC(=S)NCc3ccccc3)cc2)cc1` [Compound 1c, N-(Benzylcarbamothioyl)-4-[5-(4-methylphenyl)-3-(trifluoromethyl)-1H-pyrazol-1-yl] benzene-sulfonamide] has a melting point of 237 to 240 °C, an IC50 ([3]; dose-response, 8–12 concentrations) of 36.2 ± 1.2 µM and an inhibition at 100 µM [3, 6] of 82.3%.
For `Cc1ccc(-c2cc(C(F)(F)F)nn2-c2ccc(S(=O)(=O)NC(=S)Nc3ccccc3)cc2)cc1` [Compound 1b, N-(Phenylcarbamothioyl)-4-[5-(4-methylphenyl)-3-(trifluoromethyl)-1H-pyrazol-1-yl] benzene-sulfonamide], the melting point was 251 to 252 °C and the inhibition at 100 µM [3, 6] was 53.5%.
Compound `CCN1C(=O)CS/C1=N\S(=O)(=O)c1ccc(-n2nc(C(F)(F)F)cc2-c2ccc(C)cc2)cc1` [Compound 2a, N-(3-Ethyl-4-oxo-1,3-thiazolidin-2-yldene)-4-[5-(4-methylphenyl)-3-(trifluoromethyl)-1H-pyrazol-1-yl]benzenesulfonamide] has a melting point of 282 °C and an inhibition at 100 µM [3, 6] of 8.2%.
`Cc1ccc(-c2cc(C(F)(F)F)nn2-c2ccc(S(=O)(=O)/N=C3\SCC(=O)N3c3ccc(C(F)(F)F)cc3)cc2)cc1` [Compound 2e, N-[3-(4-Trifluoromethylphenyl)-4-oxo-1,3-thiazolidin-2-yldene)-4-[5-(4-methylphenyl)-3-(trifluoro-methyl)-1H-pyrazol-1-yl]benzenesulfonamide] showed a melting point of 234 to 235 °C and an inhibition at 100 µM [3, 6] of 9.4%.
